For one experiment, the system named is GCGR. The settings on record: antagonist to glucagon; no reference given; cited from earlier work.
The test system of experiment [1] is GCGR mutants of Trp295 and Asn298. The experiment in a line: Whole-cell glucagon binding assay, ECL2 mutants Trp295 and Asn298. On the set-up: species or system human. The settings on record: CHO-K1 cells, 40 pM 125I-glucagon, room temperature, 3 h.

Turning to `CS(=O)(=O)c1cccc(NC(=O)N(Cc2ccc(C(=O)Nc3nn[nH]n3)cc2)c2ccc(C3CCCCC3)cc2)c1` [NNC0640], the mode of antagonism result in the experiment on GCGR is given as “competitive antagonist to glucagon”.

As to “glucagon: 29 amino acid hormonal peptide, glucagon (Supplementary Fig. 1a)”, the “effect of mutation of ECL2 residues on ligand binding” value in experiment [1] is reported as “strongly affects ligand binding”.

(Values after article PMC3820480 (Nature, 2013).)
